Among the data in ChEMBL document CHEMBL1154198, “Chemical genetics of Plasmodium falciparum” (Nature, 2010) are EC50 values, retold here.

Assay [1] has as its system Plasmodium falciparum. The assay can be described thus: ST_JUDE: Plasmodium falciparum K1 EC50 (uM) as measured by SYBR green dye. It counts as functional, organism-based.
Assay [2] deals with Plasmodium falciparum. The assay can be described thus: ST_JUDE: Plasmodium falciparum 3D7 EC50 (uM) as measured by SYBR green dye. It counts as functional, organism-based.

Consider `COc1ccc(OC)c(NC(=O)C2c3ccccc3C(=O)N(C)C2c2cccs2)c1` (stereo not drawn), for which the EC50 – broadly, the concentration that produces a half-maximal response – with Plasmodium falciparum [1] was 4.28 µM; in the assay with Plasmodium falciparum [2], > 15 µM.
In the same order, the values of `COC(=O)CNC(c1ccccc1)c1cc(Br)ccc1NC(=O)c1ccc(OC)cc1` (stereo not drawn) are 4.33 µM and 4.22 µM.
With `CCOc1cc(C2Nc3cccc4cccc(c34)N2)ccc1O`, the EC50 in the assay on Plasmodium falciparum [1] and in the assay on Plasmodium falciparum [2] was > 15 µM each time.
For the compound `CCN(CCN(C)C)C(=O)c1csc(-c2ccc(OC(F)(F)F)cc2)n1`, the EC50 in the assay with Plasmodium falciparum [1] is > 15 µM; in the assay on Plasmodium falciparum [2], 4.51 µM.
In the same order, the values of `CCN(CC)S(=O)(=O)c1ccc(C(=O)Nc2nc(-c3ccccc3OC)cs2)cc1` are > 15 µM and > 15 µM.
For `CCOc1ccc(Nc2nc(N)c3ccccc3n2)cc1` the same measures were > 15 µM and 3.23 µM.
As for `O=C1CC(C(=O)N2CCC(c3nc(-c4cccnc4)ncc3-c3ccccc3)CC2)c2ccccc21` (stereo not drawn), the EC50 came out at 4.09 µM in the assay on Plasmodium falciparum [1] and 2.73 µM with Plasmodium falciparum [2].
For `Oc1c(CN2CCN(c3cccc(C(F)(F)F)c3)CC2)cc(COCc2ccccc2)c2cccnc12` the same measures were 1.45 µM and 2.33 µM.
As for `Cc1sc(NC(=O)c2cc(-c3ccccn3)nc3ccc(Cl)cc23)c(C(N)=O)c1C`, the EC50 in the assay on Plasmodium falciparum [1] and in the assay on Plasmodium falciparum [2] was > 15 µM throughout.
On to `COc1cc(CNc2cccc(Cl)c2)cc(I)c1OC`, for which the EC50 is 4.1 µM in the assay with Plasmodium falciparum [1] and 3.96 µM in the assay with Plasmodium falciparum [2].
With `CC(C)C(=O)NC(c1ccc(Cl)cc1Cl)c1ccc2cccnc2c1O` (stereo not drawn), the EC50 with Plasmodium falciparum [1] stood at 4.6 µM; with Plasmodium falciparum [2] it was 3.65 µM.
In the same order, the values of `O=C(c1cccc(C(F)(F)F)c1)N1CCN(c2ccc(N3CCCCCC3)nn2)CC1` are > 15 µM and > 15 µM.
For `CCCOc1ccc(-c2[nH]ncc2Oc2ccccc2)c(O)c1` the same measures were 2.49 µM and 4.7 µM.
In the same order, the values of `COc1ccc(C2NCCc3c2[nH]c2ccccc32)cc1CN1CCN(c2ccc([N+](=O)[O-])cc2)CC1` (stereo not drawn) are 3.81 µM and 3.65 µM.
As to `O=S(=O)(NCC(c1cccnc1)N1CCN(c2ccccc2F)CC1)c1ccc(F)cc1` (stereo not drawn), the values for the EC50 in the assay on Plasmodium falciparum [1] and with Plasmodium falciparum [2] were 5.33 µM and > 15 µM, respectively.
For `COc1ccc(C(=O)C2CCCN(Cc3ccc(OCCO)cc3)C2)cc1OC` (stereo not drawn) the same measures were > 15 µM and > 15 µM.
As to `O=C(Cc1ccccc1)N(Cc1cccnc1)c1nc2ccc(Cl)cc2s1`, the EC50 in the assay on Plasmodium falciparum [1] and in the assay on Plasmodium falciparum [2] was > 15 µM in each case.
With `Cc1ccc(NC(=O)C2c3ccccc3C(=O)N(C3CCCC3)C2c2cccs2)cc1` (stereo not drawn), the EC50 with Plasmodium falciparum [1] is 1.44 µM; in the assay on Plasmodium falciparum [2], > 15 µM.
For `Cc1cc(C)c2nc(C)cc(Nc3cccc(Cl)c3)c2c1` the same measures were 3.83 µM and 0.812 µM.
For `O=Cc1ccc2noc(-c3ccc(Cl)cc3)c2c1`, the EC50 in the assay on Plasmodium falciparum [1] and with Plasmodium falciparum [2] was > 15 µM in each case.
For `Cc1ccc(Nc2cc(C)nc(-n3cc([N+](=O)[O-])cn3)n2)cc1`, the EC50 in the assay on Plasmodium falciparum [1] is > 15 µM; in the assay with Plasmodium falciparum [2] it was 7.25 µM.
In the same order, the values of `Cc1ccc(Nc2cc(C)nc(Nc3ccc(NS(=O)(=O)c4ccc(F)cc4)cc3)n2)cc1` are 7.04 µM and 0.746 µM.
In the same order, the values of `CCOc1ccccc1N(CC(=O)Nc1ccccc1C(C)C)S(=O)(=O)c1ccccc1` are > 15 µM and > 15 µM.
In the same order, the values of `Oc1c(C(Nc2ccccn2)c2cccc(OC3CCCC3)c2)ccc2cccnc12` (stereo not drawn) are 4.16 µM and 3.71 µM.
`COC(=O)c1c(S(=O)(=O)N2CCCC2)sc2c1CCN(Cc1c[nH]nc1-c1ccccc1)C2`: the EC50 in the assay on Plasmodium falciparum [1] and with Plasmodium falciparum [2] was > 15 µM each time.
On to `CCOC(=O)c1ccc(NC2=C(N3CCCCC3)C(=O)c3ccccc3C2=O)cc1`, for which the concentration for a half-maximal effect (EC50) in the assay on Plasmodium falciparum [1] was determined as 0.111 µM; with Plasmodium falciparum [2], 0.0422 µM.
For `O=C(O)c1ccc(NC2=C(n3nnc4ccccc43)C(=O)c3ccccc3C2=O)cc1` the same measures were 1.49 µM and > 15 µM.
For `COc1ccccc1Cn1ccnc1SCC(=O)Nc1cc(C)ccc1C` the same measures were > 15 µM and 1.97 µM.
For `CCOC(=O)c1ccc(N2Cc3ccccc3C2)cc1O` the same measures were > 15 µM and > 15 µM.
Consider `C=CCOC(=O)C1=C(C)N=C(C)/C(=C(\O)OCC=C)C1c1ccc(OC)c(OC)c1` (stereo not drawn), for which the results for the EC50 in the assay on Plasmodium falciparum [1] and in the assay with Plasmodium falciparum [2] were 5.93 µM and 4.4 µM, respectively.
For `COc1ccccc1/N=C1\C=C(NS(=O)(=O)c2ccc(Cl)cc2)c2ccccc2C1=O` the same measures were 0.267 µM and 0.268 µM.
In the same order, the values of `CC1CCCCN1CCCNC(=O)c1ccc2c(c1)sc1nc(-c3ccc(F)cc3)cn12` (stereo not drawn) are 1.59 µM and 0.634 µM.
For `Cc1[nH]c2c(-c3ccc(Cl)cc3)cnn2c(=O)c1Cc1ccccc1` the same measures were 6.88 µM and 6.84 µM.
`COc1ccccc1Nc1nc(NCc2ccccc2)c2ccccc2n1`: the EC50 in the assay on Plasmodium falciparum [1] came out at 11.8 µM; in the assay on Plasmodium falciparum [2] it was 3.97 µM.
With `COc1ccc(Cl)c2sc(N(Cc3cccnc3)C(=O)c3ccc(S(C)(=O)=O)cc3)nc12`, the EC50 in the assay with Plasmodium falciparum [1] and in the assay on Plasmodium falciparum [2] was > 15 µM throughout.
Turning to `Cc1cccc(NC(c2cccc(Cl)c2)c2ccc3cccnc3c2O)n1` (stereo not drawn), the values for the EC50 in the assay on Plasmodium falciparum [1] and with Plasmodium falciparum [2] were 3.34 µM and 3.47 µM, respectively.
In the same order, the values of `Cc1c(C(=O)Nc2cc(Cl)ccc2Cl)cccc1[N+](=O)[O-]` are > 15 µM and > 15 µM.
For `CCCN1C(=O)c2[nH]nc(-c3c(C)cc(C)cc3O)c2C1c1cccc(OC)c1` (stereo not drawn) the same measures were 2.68 µM and 5.09 µM.
For `COc1cccc(Nc2nc(NCC3CCCO3)c3ccccc3n2)c1` (stereo not drawn) the same measures were 1.72 µM and 1.06 µM.
In the case of `CCCCCCC(O)(c1ccc(F)cc1)C(CN1CCOCC1)c1ccccc1` (stereo not drawn), the EC50 in the assay with Plasmodium falciparum [1] is 2.19 µM; in the assay with Plasmodium falciparum [2], 3.18 µM.
In the same order, the values of `Cc1ccc(O)c(NC(=O)c2noc3c2CC(C(C)(C)C)CC3)c1` (stereo not drawn) are 0.483 µM and > 15 µM.
With `Nc1ccc(-c2nc3cc(Oc4ccc5[nH]c(-c6ccc(N)cc6)nc5c4)ccc3[nH]2)cc1`, the EC50 in the assay with Plasmodium falciparum [1] was found to be 1.69 µM; in the assay on Plasmodium falciparum [2] it was 1.47 µM.
Take `CCCCCOc1ccc(NC2=C(N3CCCCC3)C(=O)c3ccccc3C2=O)cc1`: the EC50 was 0.057 µM in the assay with Plasmodium falciparum [1] and 0.0689 µM in the assay on Plasmodium falciparum [2].
Consider `CN1C(=O)C(=Cc2ccc(-c3ccc(O)c(C(=O)O)c3)o2)C(=O)N(C)C1=O`, for which the EC50 with Plasmodium falciparum [1] and in the assay on Plasmodium falciparum [2] was > 15 µM each time.
Turning to `CN1C=CC(=Cc2sc3ccccc3[n+]2C)C=C1`, the EC50 is 0.389 µM in the assay with Plasmodium falciparum [1] and 0.873 µM in the assay on Plasmodium falciparum [2].
For `CC1CCN(CCCNc2cc(NCCO)c([N+](=O)[O-])c3nonc23)CC1` the same measures were > 15 µM and > 15 µM.
For `Oc1cccc2ccc[n+](CC(O)Cn3c4ccccc4c4ccccc43)c12` (stereo not drawn) the same measures were > 15 µM and 1.31 µM.
In the same order, the values of `COC(=O)c1ccc(NC(=O)CSc2ccc3nnc(-c4ccc(C)cc4)n3n2)cc1` are > 15 µM and > 15 µM.
With `Cc1ccc(C2Nn3c(nnc3-c3ccccc3)SC2C(=O)N2CCCCCC2)cc1` (stereo not drawn), the concentration for a half-maximal effect (EC50) turned out to be 3.91 µM with Plasmodium falciparum [1] and 2.94 µM in the assay on Plasmodium falciparum [2].
In the same order, the values of `Cc1ccc(S(=O)(=O)N(CC(=O)N2CCCCCC2)Cc2ccc(Cl)cc2)cc1` are > 15 µM and > 15 µM.
In the same order, the values of `CC(C)(C)CNc1cc(N2CCN(C(=O)c3cccs3)CC2)ccc1[N+](=O)[O-]` are 4.76 µM and 4.53 µM.
In the same order, the values of `COC(=O)C1C(=O)C2=C(CC1C)NC(=O)CC2c1ccc([N+](=O)[O-])cc1` (stereo not drawn) are 1.66 µM and 3.01 µM.
In the case of `COc1ccc(CN2CCNC(=O)C2CC(=O)NCCOC(C)C)c(OC)c1` (stereo not drawn), the EC50 with Plasmodium falciparum [1] and in the assay on Plasmodium falciparum [2] was > 15 µM throughout.
Turning to `Cn1c(-c2ccc([N+](=O)[O-])cc2)[n+](C)c2ccccc21`, the values for the EC50 with Plasmodium falciparum [1] and with Plasmodium falciparum [2] were 2.67 µM and > 15 µM, respectively.
For `Cc1cc(C)nc(/N=C(\N)Nc2ccc(Cl)cc2C(=O)c2ccccc2)n1` the same measures were 8.05 µM and 3.59 µM.
For `CC(C)(C)CC(C)(C)c1ccc(O)c(CN2CCN(c3ccccc3)CC2)c1` the same measures were 0.174 µM and 0.354 µM.
In the same order, the values of `O=C(Nc1ccc(F)c(Cl)c1)Nc1ccc(Cl)c(Cl)c1` are 1.63 µM and 5.41 µM.
Regarding `CCN(CC)c1cc(C)c2cc(NC(=O)c3ccc(OC)c(OC)c3)ccc2n1`, the EC50 in the assay on Plasmodium falciparum [1] is > 15 µM; in the assay with Plasmodium falciparum [2] it was 2.29 µM.
For `Cc1cccc(C2Sc3ccccc3N=C3C2=C(O)c2ccccc23)c1` (stereo not drawn) the same measures were 1.77 µM and 1.89 µM.
In the same order, the values of `Cc1ccc(CN2CCN(Cc3c(C)nn(C)c3Cl)CC2CCO)cc1` (stereo not drawn) are > 15 µM and > 15 µM.
For `COc1ccc(S(=O)(=O)n2nc(-c3ccc(Cl)cc3)cc2N)cc1OC` the same measures were > 15 µM and 6.54 µM.
Take `CN(C)CCCNCc1ccc2[nH]c3c(c2c1)CCCC3`: the EC50 with Plasmodium falciparum [1] is > 15 µM; in the assay with Plasmodium falciparum [2], 3.4 µM.
In the case of `Cc1c(Cl)cccc1NC(=O)Nc1ccc(Cl)c(Cl)c1`, the results for the EC50 in the assay with Plasmodium falciparum [1] and with Plasmodium falciparum [2] were > 15 µM and 4.13 µM, respectively.
In the same order, the values of `CCOC(=O)c1ccc(NC2=C(n3nnc4ccccc43)C(=O)c3ccccc3C2=O)cc1` are 0.678 µM and 3.23 µM.
In the same order, the values of `COc1cccc(C(=O)NC(NC(=S)Nc2ccccc2Cl)C(Cl)(Cl)Cl)c1` (stereo not drawn) are 5.39 µM and 2.67 µM.
In the same order, the values of `COc1ccccc1C(=O)N(Cc1cccnc1)c1nc2c(F)cccc2s1` are 9.07 µM and > 15 µM.
On to `CCN1CCN(c2cc(C)c3cc(NC(=S)NCCN4CCN(c5cccc(Cl)c5)CC4)ccc3n2)CC1`, for which the EC50 with Plasmodium falciparum [1] was found to be 6.15 µM; with Plasmodium falciparum [2], 2.4 µM.
In the same order, the values of `Cc1ccc(OCCCOc2cccc3ccc(C)nc23)c([N+](=O)[O-])c1` are > 15 µM and > 15 µM.
For `CCCCC(=O)NC(c1ccc(Cl)cc1Cl)c1ccc2cccnc2c1O` (stereo not drawn) the same measures were 5.3 µM and > 15 µM.
